IC50 data for one molecule are collected here from patent US20060084657A1, “Piperazine derivative” (priority 2001, published 2006).

This test deals with T1, human MC4 receptor (Homo sapiens, UniProt P32245).
T1 construct: purchased BioLinks K.K; host or cells: HEK-293 cell membranes
Put plainly: Test for binding to MC4 receptor. The note with it: HEK-293 cell membranes expressing the human MC4 receptor; [125I]Nle4-D-Phe7-α-MSH 0.2 nM; 25° C. for 120 minutes. As for the experimental part:
The test for binding to MC4 receptor was carried out according to the method as described in Pharmacology & Toxicology, 79, 161-165, 1996. HEK-293 cell membranes expressing the human MC4 receptor were purchased from BioLinks K.K. The cell membranes were homogenized in a 50 mM Tris-hydrochloric buffer (pH 7.4) containing 2 mM ethylenediaminetetraacetic acid, 10 mM calcium chloride and 100 μM phenymethylsulfonyl fluoride. The homogenate was centrifuged at 48,000×g at 4° C. for 20 minutes. The precipitate obtained by centrifugation was re-homogenized in the same buffer, and then the homogenate was centrifuged at 48,000×g at 4° C. for 20 minutes. This manipulation was repeated twice. The precipitates were suspended in a 50 mM Tris-hydrochloric acid buffer (pH 7.4) containing 2 mM ethylenediaminetetraacetic acid, 10 mM calcium chloride, 100 μM phenymethylsulfonyl fluoride and 0.1% bovine serum albumin so as to provide a protein concentration of 100 μg/ml. The suspension was used for the binding test as a crude membrane specimen. The crude membrane specimen (0.25 ml, 25 μg protein) was allowed to react with [^125I]Nle^4-D-Phe^7-α-MSH (final concentration of 0.2 nM) at 25° C. for 120 minutes. […] Radioactivity on the filter papers was measured using a γ-counter. […] IC50 value was calculated from inhibition curve at concentrations of from 10^−8 to 10^−5.

T1 sequence (P32245 whole entry): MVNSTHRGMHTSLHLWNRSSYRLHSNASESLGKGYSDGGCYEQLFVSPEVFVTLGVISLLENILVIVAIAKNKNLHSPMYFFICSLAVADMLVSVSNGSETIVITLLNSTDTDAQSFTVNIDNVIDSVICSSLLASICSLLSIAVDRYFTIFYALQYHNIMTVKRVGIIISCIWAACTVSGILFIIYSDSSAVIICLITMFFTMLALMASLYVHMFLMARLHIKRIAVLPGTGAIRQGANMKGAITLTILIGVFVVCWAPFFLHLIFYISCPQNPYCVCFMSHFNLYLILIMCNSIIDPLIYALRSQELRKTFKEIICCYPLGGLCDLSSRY

Take `CC(C)N1CCN(C(CN2CCN(CCCc3sc(-c4ccccc4)nc3-c3ccccc3)CC2)c2ccc(F)cc2)CC1` (stereo not shown) [Compound 86]: the IC50 – broadly, the concentration needed to halve the response being measured – came to 162 nM. In other words, the sub-micromolar range.
